Data published in patent publication US20110306606A1, “NOVEL 2,6-SUBSTITUTED-3-NITROPYRIDINE DERIVATIVE, METHOD FOR PREPARING SAME, AND PHARMACEUTICAL COMPOSITION INCLUDING SAME” (priority 2008, published 2011).

tested on: Osteoblasts (Calvarial cells); assay: Cytotoxicity test (MTT); conditions: 1 μM compound, 72 hours, in comparison with vehicle control

Structure (SMILES) | Cell viability (%) Calvarial cell [%]
CC(C)Nc1ccc([N+](=O)[O-])c(Nc2ccc(N3CCCC(CO)C3)c(F)c2)n1 (centres unmarked) [Compound 276, 2-{[3-fluoro-4-(3-hydroxymethylpiperidino)]phenylamino}-6-(isopropylamino)-3-nitropyridine] | 102
CC(C)CNc1ccc([N+](=O)[O-])c(Nc2ccc(N3CCCC(CO)C3)c(F)c2)n1 (centres unmarked) [Compound 277, 2-{[3-fluoro-4-(3-hydroxymethylpiperidino)]phenylamino}-6-(isobutylamino)-3-nitropyridine] | 107
CC(C)(C)Nc1ccc([N+](=O)[O-])c(Nc2ccc(N3CCCC(CO)C3)c(F)c2)n1 (centres unmarked) [Compound 278, 2-{[3-fluoro-4-(3-hydroxymethylpiperidino)]phenylamino}-6-(t-butylamino)-3-nitropyridine] | 118
O=[N+]([O-])c1ccc(N2CCC(O)CC2)nc1Nc1ccc(N2CCCC(CO)C2)c(F)c1 (centres unmarked) [Compound 279, 2-{[3-fluoro-4-(3-hydroxymethylpiperidino)]phenylamino}-6-(4-hydroxypiperidino)-3-nitropyridine] | 102
CC1=NCCN1c1ccc([N+](=O)[O-])c(Nc2ccc(N3CCCC(CO)C3)c(F)c2)n1 (centres unmarked) [Compound 280, 2-{[3-fluoro-4-(3-hydroxymethylpiperidino)]phenylamino}-6-[(2-methyl-4,5-dihydro)imidazol-1-yl]-3-nitropyridine] | 103
O=[N+]([O-])c1ccc(N2CCNCC2)nc1Nc1ccc(N2CCCC(CO)C2)c(F)c1 (centres unmarked) [Compound 281, 2-{[3-fluoro-4-(3-hydroxymethylpiperidino)]phenylamino}-6-(piperazin-1-yl)-3-nitropyridine] | 107
CN1CCN(c2ccc([N+](=O)[O-])c(Nc3ccc(N4CCCC(CO)C4)c(F)c3)n2)CC1 (centres unmarked) [Compound 282, 2-{[3-fluoro-4-(3-hydroxymethylpiperidino)]phenylamino}-6-(4-methylpiperazin-1-yl)-3-nitropyridine] | 107
O=[N+]([O-])c1ccc(N2CCOCC2)nc1Nc1ccc(N2CCCC(CO)C2)c(F)c1 (centres unmarked) [Compound 283, 2-{[3-fluoro-4-(3-hydroxymethylpiperidino)]phenylamino}-6-morpholino-3-nitropyridine] | 103
NC1CCN(c2ccc([N+](=O)[O-])c(Nc3ccc(N4CCCC(CO)C4)c(F)c3)n2)CC1 (centres unmarked) [Compound 284, 2-{[3-fluoro-4-(3-hydroxymethylpiperidino)]phenylamino}-6-(4-aminopiperidino)-3-nitropyridine] | 100
O=[N+]([O-])c1ccc(NCc2cccnc2)nc1Nc1ccc(N2CCCC(CO)C2)c(F)c1 (centres unmarked) [Compound 285, 2-{[3-fluoro-4-(3-hydroxymethylpiperidino)]phenylamino}-6-[(3-pyridyl)methylamino]-3-nitropyridine] | 106
O=[N+]([O-])c1ccc(NCc2ccncc2)nc1Nc1ccc(N2CCCC(CO)C2)c(F)c1 (centres unmarked) [Compound 286, 2-{[3-fluoro-4-(3-hydroxymethylpiperidino)]phenylamino}-6-[(4-pyridyl)methylamino]-3-nitropyridine] | 123
O=[N+]([O-])c1ccc(NCCc2ccccn2)nc1Nc1ccc(N2CCCC(CO)C2)c(F)c1 (centres unmarked) [Compound 287, 2-{[3-fluoro-4-(3-hydroxymethylpiperidino)]phenylamino}-6-[2-(2-pyridyl)ethylamino]-3-nitropyridine] | 103
O=[N+]([O-])c1ccc(NC2CC2)nc1Nc1ccc(N2CCCC(CO)C2)c(F)c1 (centres unmarked) [Compound 288, 2-{[3-fluoro-4-(3-hydroxymethylpiperidino)]phenylamino}-6-(cyclopropylamino)-3-nitropyridine] | 103
CNc1ccc([N+](=O)[O-])c(Nc2ccc(N3CCC(C(N)=O)CC3)c(F)c2)n1 [Compound 289, 2-{[3-fluoro-4-(4-carbamoylpiperidino)]phenylamino}-6-(methylamino)-3-nitropyridine] | 115
CC(C)Nc1ccc([N+](=O)[O-])c(Nc2ccc(N3CCC(C(N)=O)CC3)c(F)c2)n1 [Compound 290, 2-{[3-fluoro-4-(4-carbamoylpiperidino)]phenylamino}-6-(isopropylamino)-3-nitropyridine] | 119
CC(C)CNc1ccc([N+](=O)[O-])c(Nc2ccc(N3CCC(C(N)=O)CC3)c(F)c2)n1 [Compound 291, 2-{[3-fluoro-4-(4-carbamoylpiperidino)]phenylamino}-6-(isobutylamino)-3-nitropyridine] | 87
CC(C)(C)Nc1ccc([N+](=O)[O-])c(Nc2ccc(N3CCC(C(N)=O)CC3)c(F)c2)n1 [Compound 292, 2-{[3-fluoro-4-(4-carbamoylpiperidino)]phenylamino}-6-(t-butylamino)-3-nitropyridine] | 102
NC(=O)C1CCN(c2ccc(Nc3nc(N4CCC(O)CC4)ccc3[N+](=O)[O-])cc2F)CC1 [Compound 293, 2-{[3-fluoro-4-(4-carbamoylpiperidino)]phenylamino}-6-(4-hydroxypiperidino)-3-nitropyridine] | 104

Structure (SMILES) | Cell viability (%) Calvarial cell [%]
NC(=O)C1CCN(c2ccc(Nc3nc(N4CCNCC4)ccc3[N+](=O)[O-])cc2F)CC1 [Compound 294, 2-{[3-fluoro-4-(4-carbamoylpiperidino)]phenylamino}-6-(piperazin-1-yl)-3-nitropyridine] | 95
CN1CCN(c2ccc([N+](=O)[O-])c(Nc3ccc(N4CCC(C(N)=O)CC4)c(F)c3)n2)CC1 [Compound 295, 2-{[3-fluoro-4-(4-carbamoylpiperidino)]phenylamino}-6-(4-methylpiperazin-1-yl)-3-nitropyridine] | 106
NC(=O)C1CCN(c2ccc(Nc3nc(N4CCOCC4)ccc3[N+](=O)[O-])cc2F)CC1 [Compound 296, 2-{[3-fluoro-4-(4-carbamoylpiperidino)]phenylamino}-6-morpholino-3-nitropyridine] | 97
NC(=O)C1CCN(c2ccc(Nc3nc(N4CCC(N)CC4)ccc3[N+](=O)[O-])cc2F)CC1 [Compound 297, 2-{[3-fluoro-4-(4-carbamoylpiperidino)]phenylamino}-6-(4-aminopiperidino)-3-nitropyridine] | 107
NC(=O)C1CCN(c2ccc(Nc3nc(NCc4ccncc4)ccc3[N+](=O)[O-])cc2F)CC1 [Compound 298, 2-{[3-fluoro-4-(4-carbamoylpiperidino)]phenylamino}-6-[(4-pyridyl)methylamino]-3-nitropyridine] | 108
NC(=O)C1CCN(c2ccc(Nc3nc(NCCN4CCOCC4)ccc3[N+](=O)[O-])cc2F)CC1 [Compound 300, 2-{[3-fluoro-4-(4-carbamoylpiperidino)]phenylamino}-6-[2-(morpholin-1-yl)ethylamino]-3-nitropyridine] | 118
CNc1ccc([N+](=O)[O-])c(Nc2ccc(N3CCCC(C(N)=O)C3)c(F)c2)n1 (centres unmarked) [Compound 301, 2-{[3-fluoro-4-(3-carbamoylpiperidino)]phenylamino}-6-(methylamino)-3-nitropyridine] | 95
CC(C)Nc1ccc([N+](=O)[O-])c(Nc2ccc(N3CCCC(C(N)=O)C3)c(F)c2)n1 (centres unmarked) [Compound 302, 2-{[3-fluoro-4-(3-carbamoylpiperidino)]phenylamino}-6-(isopropylamino)-3-nitropyridine] | 103
CC(C)CNc1ccc([N+](=O)[O-])c(Nc2ccc(N3CCCC(C(N)=O)C3)c(F)c2)n1 (centres unmarked) [Compound 303, 2-{[3-fluoro-4-(3-carbamoylpiperidino)]phenylamino}-6-(isobutylamino)-3-nitropyridine] | 102
CC(C)(C)Nc1ccc([N+](=O)[O-])c(Nc2ccc(N3CCCC(C(N)=O)C3)c(F)c2)n1 (centres unmarked) [Compound 304, 2-{[3-fluoro-4-(3-carbamoylpiperidino)]phenylamino}-6-(t-butylamino)-3-nitropyridine] | 103
NC(=O)C1CCCN(c2ccc(Nc3nc(N4CCC(O)CC4)ccc3[N+](=O)[O-])cc2F)C1 (centres unmarked) [Compound 305] | 107
NC(=O)C1CCCN(c2ccc(Nc3nc(N4CCNCC4)ccc3[N+](=O)[O-])cc2F)C1 (centres unmarked) [Compound 306, 2-{[3-fluoro-4-(3-carbamoylpiperidino)]phenylamino}-6-(piperazin-1-yl)-3-nitropyridine] | 122
CN1CCN(c2ccc([N+](=O)[O-])c(Nc3ccc(N4CCCC(C(N)=O)C4)c(F)c3)n2)CC1 (centres unmarked) [Compound 307, 2-{[3-fluoro-4-(3-carbamoylpiperidino)]phenylamino}-6-(4-methylpiperazin-1-yl)-3-nitropyridine] | 131
NC(=O)C1CCCN(c2ccc(Nc3nc(N4CCOCC4)ccc3[N+](=O)[O-])cc2F)C1 (centres unmarked) [Compound 308, 2-{[3-fluoro-4-(3-carbamoylpiperidino)]phenylamino}-6-morpholino-3-nitropyridine] | 109
NC(=O)C1CCCN(c2ccc(Nc3nc(N4CCC(N)CC4)ccc3[N+](=O)[O-])cc2F)C1 (centres unmarked) [Compound 309, 2-{[3-fluoro-4-(3-carbamoylpiperidino)]phenylamino}-6-(4-aminopiperidino)-3-nitropyridine] | 110
NC(=O)C1CCCN(c2ccc(Nc3nc(NCc4cccnc4)ccc3[N+](=O)[O-])cc2F)C1 (centres unmarked) [Compound 310, 2-{[3-fluoro-4-(3-carbamoylpiperidino)]phenylamino}-6-[(3-pyridyl)methylamino]-3-nitropyridine] | 97
NC(=O)C1CCCN(c2ccc(Nc3nc(NCc4ccncc4)ccc3[N+](=O)[O-])cc2F)C1 (centres unmarked) [Compound 311, 2-{[3-fluoro-4-(3-carbamoylpiperidino)]phenylamino}-6-[(4-pyridyl)methylamino]-3-nitropyridine] | 98
